Data from PubChem BioAssay AID1963875 (Molecular Pharmacology Branch, DTP, NCI, 2024).

Tested on: KRAS-mutant PDC complex spheroid viability
Assay: Anticancer human tumor 186277-243-T-J2-PDC patient-derived colon adenocarcinoma cell line growth inhibition [KRAS2]
Settings: for IC50: curve of first compound; for viability, T/C: stronger effect = lower value
Procedure, shortened: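 KRAS-mutant tumor cells were grown as spheroids with HUVEC endothelial cells and human MSCs as stroma. Targeted agents were tested alone and with KRAS pathway inhibitors. Doses started at or near clinical Cmax, or 10 microM, descending half-log.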

[1] = second compound 0.0316 µM, first compound 0.0316 µM
[2] = second compound 0.0316 µM, first compound 0.1 µM
[3] = second compound 0.0316 µM, first compound 0.316 µM
[4] = second compound 0.0316 µM, first compound 1 µM
[5] = second compound 0.0316 µM, first compound 3.16 µM
[6] = second compound 0.0316 µM, first compound 10 µM
[7] = second compound 0.1 µM, first compound 0.0316 µM
[8] = second compound 0.1 µM, first compound 0.1 µM
[9] = second compound 0.1 µM, first compound 0.316 µM
[10] = second compound 0.1 µM, first compound 1 µM
[11] = second compound 0.1 µM, first compound 3.16 µM
[12] = second compound 0.1 µM, first compound 10 µM
[13] = second compound 0.316 µM, first compound 0.0316 µM
[14] = second compound 0.316 µM, first compound 0.1 µM
[15] = second compound 0.316 µM, first compound 0.316 µM
[16] = second compound 0.316 µM, first compound 1 µM
[17] = second compound 0.316 µM, first compound 3.16 µM
[18] = second compound 0.316 µM, first compound 10 µM
[19] = second compound 1 µM, first compound 0.0316 µM
[20] = second compound 1 µM, first compound 0.1 µM
[21] = second compound 1 µM, first compound 0.316 µM
[22] = second compound 1 µM, first compound 1 µM
[23] = second compound 1 µM, first compound 3.16 µM
[24] = second compound 1 µM, first compound 10 µM
[25] = second compound 3.16 µM, first compound 0.0316 µM
[26] = second compound 3.16 µM, first compound 0.1 µM
[27] = second compound 3.16 µM, first compound 0.316 µM
[28] = second compound 3.16 µM, first compound 1 µM
[29] = second compound 3.16 µM, first compound 3.16 µM
[30] = second compound 3.16 µM, first compound 10 µM
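Wherever viability, T/C is given: viability read after seven days of compound exposure; 100% = DMSO vehicle-treated spheroids so lower means less viable.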

Row | Structure (SMILES) | IC50 (second compound 0.0316 µM) | IC50 (second compound 0.1 µM) | IC50 (second compound 0.316 µM) | IC50 (second compound 1 µM) | IC50 (second compound 3.16 µM) | viability, T/C [1] | viability, T/C [2] | viability, T/C [3] | viability, T/C [4] | viability, T/C [5] | viability, T/C [7] | viability, T/C [8] | viability, T/C [9] | viability, T/C [10] | viability, T/C [11] | viability, T/C [13] | viability, T/C [14] | viability, T/C [15] | viability, T/C [16] | viability, T/C [17] | also measured
1 | CC(C)NCC(C(=O)N1CCN(c2ncnc3c2C(C)CC3O)CC1)c1ccc(Cl)cc1 (stereo not given) + C=CC(=O)N1CCN(c2nc(OCC3CCCN3C)nc3c2CCN(c2cccc4cccc(C)c24)C3)CC1CC#N | 691 nM | 664 nM | 505 nM | 248 nM | < 31.6 nM | 93.5% | 105% | 73.5% | 37% | 26.5% | 113% | 87.8% | 72.7% | 36.5% | 23.6% | 108% | 96.3% | 62.4% | 29.9% | 19.2% | viability, T/C [6]: 11.2%; viability, T/C [12]: 12.3%; viability, T/C [18]: 8.67%; viability, T/C [19]: 97.8%; viability, T/C [20]: 104%; viability, T/C [21]: 36.3%; viability, T/C [22]: 18.4%; viability, T/C [23]: 9.11%; viability, T/C [24]: 4.64%; viability, T/C [25]: 0.22%; viability, T/C [26]: 0.21%; viability, T/C [27]: 0.16%; viability, T/C [28]: 0.13%; viability, T/C [29]: 0.12%; viability, T/C [30]: 0.21%
2 | CC1COCCN1c1cc(-c2ccnn2C)c2ccnc(-c3ccn[nH]3)c2n1 (stereo not given) + C=CC(=O)N1CCN(c2nc(OCC3CCCN3C)nc3c2CCN(c2cccc4cccc(C)c24)C3)CC1CC#N | 20.3 nM | 19.8 nM | 19 nM | 18.3 nM | < 10 nM | 25.8% | 7.37% | 5.84% | 5.53% | 6.31% | 24.3% | 7.71% | 5.76% | 5.41% | 5.94% | 21.6% | 7.5% | 5.3% | 5.1% | 5.45% | viability, T/C (second compound 0.0316 µM, first compound 0.01 µM): 88.9%; viability, T/C (second compound 0.1 µM, first compound 0.01 µM): 87.5%; viability, T/C (second compound 0.316 µM, first compound 0.01 µM): 85.9%; viability, T/C (second compound 1 µM, first compound 0.01 µM): 91.2%; viability, T/C [19]: 12.7%; viability, T/C [20]: 7.23%; viability, T/C [21]: 5.64%; viability, T/C [22]: 4.81%; viability, T/C [23]: 4.49%; viability, T/C (second compound 3.16 µM, first compound 0.01 µM): 1.43%; viability, T/C [25]: 1.73%; viability, T/C [26]: 1.13%; viability, T/C [27]: 1.47%; viability, T/C [28]: 0.61%; viability, T/C [29]: 1.05%
3 | CCNC(=O)CC1N=C(c2ccc(Cl)cc2)c2cc(OC)ccc2-n2c(C)nnc21 (stereo not given) + C=CC(=O)N1CCN(c2nc(OCC3CCCN3C)nc3c2CCN(c2cccc4cccc(C)c24)C3)CC1CC#N | > 10000 nM | > 10000 nM | > 10000 nM | 8180 nM | < 31.6 nM | 100% | 102% | 118% | 171% | 151% | 106% | 99% | 113% | 169% | 154% | 99.9% | 96.9% | 125% | 149% | 130% | viability, T/C [6]: 118%; viability, T/C [12]: 116%; viability, T/C [18]: 102%; viability, T/C [19]: 97%; viability, T/C [20]: 107%; viability, T/C [21]: 138%; viability, T/C [22]: 138%; viability, T/C [23]: 93.6%; viability, T/C [24]: 40.8%; viability, T/C [25]: 1.32%; viability, T/C [26]: 10.2%; viability, T/C [27]: 1.62%; viability, T/C [28]: 1.12%; viability, T/C [29]: 0.2%; viability, T/C [30]: 0.24%
